The source of these data is patent EP2468303A1, “Functionalized nucleic acids and particles comprising them for the treatment of HIV infections” (priority 2010, dated 2012).

Where only a bound is given, the exact number is not on record here.

The experiment has as its system pNL4.3 virus. Kind of experiment: Time-of-addition experiment in single-round infection assay. It is filed as cell-based, HIV-1. Conditions: Hela P4 cells, 100 nM, whatever the time of addition post-infection. From the text:
Antiviral activity was quantified using the above-described CPRG assay.

Take `Cc1nnc(C(=O)NC(C)(C)c2nc(C(=O)NCc3ccc(F)cc3)c(O)c(=O)n2C)o1` [raltegravir]: the viral replication blocked was < 100%.
